Results from ChEMBL document CHEMBL1132945, “Ethylene glycol and amino acid derivatives of 5-aminolevulinic acid as new photosensitizing precursors of protoporphyrin IX in cells” (J Med Chem, 2000).

Tests used:
A549 = experiment: Cytotoxicity against A549 cells; No cytotoxicity; type: functional, cell-based; conditions: Homo sapiens
HCEC = experiment: Cytotoxicity against HCEC cells; No cytotoxicity; type: functional, cell-based; conditions: Homo sapiens

SMILES | Cytotoxicity (A549) | Cytotoxicity (HCEC)
COCCOC(=O)CCC(=O)CN | No cytotoxicity | No cytotoxicity
CCOCCOC(=O)CCC(=O)CN | No cytotoxicity | No cytotoxicity
CCOCCOCCOC(=O)CCC(=O)CN | No cytotoxicity | No cytotoxicity
CCOCCOCCOCCOC(=O)CCC(=O)CN | No cytotoxicity | No cytotoxicity
